Data reported in patent US9597359B2, “Production of dentin, cementum and enamel by cells” (The Trustees of Columbia University in the City of New York, priority 2010, dated 2017).

What was measured:
[1] = tested on: Wnt signaling reporter (TOPGAL osteoblasts); assay: LacZ activity in primary osteoblasts from TOPGAL mice; assay type: cell-based; settings: 48 hours after treatment
Protocol: (§1) PDL cells were treated with amelogenin for 16 hours. The active beta catenin level were determined by western blotting (see e.g., FIG. 18A). […] Wnt signaling reporter TOPFLASH was transfected into PDL cells and then the cells were treated with amelogenin. The luciferase activity was measured 48 hours after treatment (see e.g., FIG. 18C). The primary osteoblasts were isolated from Wnt signaling reporter mice, TOPGAL. 48 hours after treatment, the LacZ activity was measured (see e.g., FIG. 18D). Fibrin gel containing 50 μg/ml was implanted subcutaneously into the TOPGAL mice. 1 week post-implantation, the gel was harvested. LacZ staining was performed. […] Recombinant amelogenin is 6×His tagged. The distribution of amelogenin is shown overlapped with the beta catenin signaling as indicated by the LacZ staining (see e.g., FIG. 18F).

[2] = tested on: Human PDL cells; assay: trichrome staining of collagen matrix in human PDL cells; assay type: cell-based; settings: 50 μg/ml ascorbic acid, 2 weeks post-treatment
Protocol: (§2) Human PDL cells were seeded in the 6 well plate and cultured in presence of 50 μg/ml ascorbic acid. The cells were treated with amelogenin. […] The total RNA was extracted and the expression of type I collagen was determined by Real Time PCR (see e.g., FIG. 17B). […] PDL cells were treated with amelogenin in the chemically-defined osteogenic media (see FIG. 17C).

[3] = tested on: Human PDL cells; assay: Von Kossa staining of human PDL cells transfected with ICAT plasmid; assay type: cell-based; settings: osteogenic media, 2 weeks
Protocol: Human PDL cells were transfected with the Wnt signaling inhibitor, ICAT plasmid. The cells were treated with amelogenin in the osteogenic media for 2 weeks.

[4] = tested on: DSCs; assay: cell proliferation by cell number count; assay type: cell-based; settings: 3000 cells seeded, counted every 2 days
Protocol: 3000 cells were seeded in the 12 well plate and the cell number was counted every 2 days (see e.g., FIG. 28A-B).

[5] = tested on: Dental pulp stem cells (DPSCs); assay: marker gene expression by RT-PCR in dental pulp stem cells in osteogenic medium; assay type: cell-based, human; settings: 3 weeks
Protocol: Dental pulp stem cells (DPSCs) were cultured in osteogenic medium for 3 weeks (see e.g., FIG. 13A-B). The osteogenic differentiation was determined by ALP and Van Kossa staining (see e.g., FIG. 13B). The expression of marker genes, RunX2 and DSPP, were determined by RT-PCR (see e.g., FIG. 13C).

[6] = tested on: beta catenin signaling; assay: fibrin gel implanted subcutaneously into TOPGAL mice, LacZ staining; assay type: in vivo; settings: fibrin gel containing 50 μg/ml, subcutaneous, 1 week post-implantation
Protocol: as §1

[7] = tested on: Human PDL cells; assay: type I collagen expression by Real Time PCR in human PDL cells; assay type: cell-based; settings: 2 weeks post-treatment
Protocol: as §2

[8] = tested on: PDL cells; assay: cell count of PDL cells; assay type: cell-based, human; settings: counted at 0, 2 and 4 days
Protocol: PDL cells and dental pulp cells (DPSC) were seeded in 12 well plate with the cells number indicated. The cell treated with amelogenin and cell number were counted at 0, 2, and 4 days (see e.g., FIG. 9A-B).

[9] = tested on: PDL cells; assay: Alkaline phosphatase and von Kossa staining of PDL cells in osteogenic media; assay type: cell-based, human; settings: chemically-defined osteogenic media
Protocol: as §2

[10] = tested on: Wnt signaling reporter TOPFLASH; assay: Wnt signaling reporter TOPFLASH luciferase activity in PDL cells; assay type: cell-based, human; settings: 48 hours after treatment
Protocol: as §1

[11] = tested on: Human PDL cells; assay: von Kossa staining of human PDL cells treated with amelogenin, BIO or Wnt3A; assay type: cell-based; settings: 2 weeks; amelogenin 5 μg/ml, BIO 1 μg/ml, Wnt3A 50 ng/ml
Protocol: The human PDL cells were treated with amelogenin, BIO, or Wnt3A as indicated for 2 weeks.

[12] = tested on: Mesenchymal stem cell C3H10t1/2 cells; assay: RT-PCR marker expression in C3H10t1/2 cells in osteogenic medium; assay type: cell-based; settings: C3H10t1/2, osteogenic medium
Excerpt: (§3) At 3 weeks, amelogenin-treated cells were positive for both ALP and Van Kossa (see e.g., FIG. 15A-B). […] However, the cells tested negative for DSPP.

[13] = tested on: dental pulp stem cells or periodontal ligament stem cells; assay: osteogenic and odontogenic differentiation of dental pulp and periodontal ligament stem cells; assay type: cell-based, human; settings: culture with amelogenin (e.g., recombinant)
Protocol: Exfoliating deciduous incisors and permanent third molars of multiple donors were collected. Dental pulp (DP) and periodontal ligament (PDL) stem cells were isolated and enzyme-digested per known methods (Yang et al., 2010, Clones of ectopic stem cells in the regeneration of muscle defects in vivo. PloS One. 2010 Oct. 20; 5 (10)). Mononucleated and adherent cells were cultured in DMEM-LG medium containing 10% FBS and 1% antibiotics in 10 cm cell culture dishes. These isolated cells contain single clones of multipotent stem cells that readily express sternness markers such as Stro-1, Oct4, Nanog, and CD146. DSCs and PDL cells were expanded and subjected to osteogenic and odontogenic differentiation. Briefly, DP and PDL stem cells were cultured in DMEM-LG medium containing 10% FBS, 50 μg/ml ascorbic acid and 1 mM 2-glycerophosphate in the presence or absence of recombinant amelogenin. The osteoaenic and odontoaenic differentiation was determined by the expression of RUNX2, dentin sialophosphoprotein (DSPP) and Dentin Matrix Protein 1 (DMP-1) by Real Time PCR, as well as Von Kossa and alkaline phosphatase staining. The level of active […] was measured by immune-fluorescence staining and western blotting.

[14] = tested on: beta catenin; assay: beta catenin translocation by immunofluorescence staining in dental pulp cells; assay type: cell-based, human; settings: dental pulp cells treated with recombinant amelogenin overnight
Protocol: (§4) The dental pulp cells were treated with recombinant amelogenin overnight. The translocation of beta catenin was determined by immunofluorescence staining (see e.g., FIG. 8A-F). Briefly, the cells were fixed with formalin for 5 min and treated with PBS with 0.1% triton for 5 min. The cells were then incubated with anti-beta catenin antibody overnight, after washing with PBS with 0.5% Tween-20, then incubated with secondary antibody labeled with fluorescence dye. […] The PDL cells treated with amelogenin were lysed with PBS lysis buffer containing 1% NP-40 and protease inhibitor, phosphatase inhibitor cocktails. The non-phosphorylated beta-catenin levels were determined by western blotting using anti-active beta catenin antibody (anti-ABC, millipore) (see e.g., FIG. 8G).

[15] = tested on: dental pulp cells; assay: DSP immunostaining of dental pulp cells; assay type: cell-based, human; settings: amelogenin group
Excerpt: Immunostaining verified DSP-positive cells in the amelogenin group (see e.g., FIG. 27A-B″).

[16] = tested on: active beta catenin; assay: active beta catenin western blotting, PDL cells; assay type: cell-based, human; settings: PDL cells treated for 16 hours
Protocol: as §1

[17] = tested on: beta catenin; assay: beta catenin translocation by immunofluorescence staining in PDL cells; assay type: cell-based, human
Protocol: The PDL cells were treated with recombinant amelogenin overnight. The translocation of beta catenin was determined by immunofluorescence staining (see e.g., FIG. 7A-F). Briefly, the cells were fixed with formalin for 5 min and treated with PBS with 0.1% triton for 5 min. The cells were then incubated with anti-beta catenin antibody overnight, after washing with PBS with 0.5% Tween-20, then incubated with secondary antibody labeled with fluorescence dye. […] Meanwhile, the PDL cells treated with amelogenin were lysed with PBS lysis buffer containing 1% NP-40 and protease inhibitor, phosphotase inhibitor cocktails. The non-phosphorylated beta catenin levels were determined by western blotting using anti-active beta catenin antibody (anti-ABC, millipore) (see e.g., FIG. 7G).
PDL cells were treated with amelogenin for 16 hours. The active beta catenin level were determined by western blotting (see e.g., FIG. 18A). […] Wnt signaling reporter TOPFLASH was transfected into PDL cells and then the cells were treated with amelogenin. The luciferase activity was measured 48 hours after treatment (see e.g., FIG. 18C). The primary osteoblasts were isolated from Wnt signaling reporter mice, TOPGAL. 48 hours after treatment, the LacZ activity was measured (see e.g., FIG. 18D). Fibrin gel containing 50 μg/ml was implanted subcutaneously into the TOPGAL mice. 1 week post-implantation, the gel was harvested. […]

[18] = tested on: PDL cells; assay: differentiation markers by Real Time PCR in PDL cells in osteogenic media; assay type: cell-based, human; settings: chemically-defined osteogenic media
Protocol: as §2

[19] = tested on: Mesenchymal stem cell C3H10t1/2 cells; assay: ALP and Van Kossa staining of C3H10t1/2 cells in osteogenic medium; assay type: cell-based; settings: C3H10t1/2, osteogenic medium
Protocol: Mesenchymal stem cell C3H10t1/2 cells were cultured in osteogenic medium for 2 weeks (see e.g., FIG. 14A).
as §3

[20] = tested on: non-phosphorylated beta-catenin; assay: non-phosphorylated beta-catenin western blotting, dental pulp cells; assay type: cell-based, human; settings: anti-active beta catenin antibody
Protocol: as §4

amelogenin was tested, and the LacZ activity [1] was “increased”, the “collagen matrix synthesis (trichrome staining)” value [2] was “promote the PDL cells matrix synthesis” and the “cell differentiation (Von Kossa staining)” value [3] was “demonstrated cell differentiation”. For the same molecule, the “cell proliferation (cell number)” value [4] was “more rapid proliferation”, the DSPP expression [5] was “DSPP-positive” and the “LacZ staining around implanted gel” value [6] was “LacZ positive cells were found in the surrounding area of the gel”. For the same molecule, the “type I collagen mRNA” value [7] was “upregulate”, the cell counts [8] was “temporal increase in cell counts” and the “cell differentiation (Alkaline phosphatase and von Kossa staining)” value [9] was “cell differentiation was confirmed”. The “Wnt activity (TOPFLASH luciferase activity)” value [10] was “increased”, the “cell differentiation (von Kossa staining)” value [11] was “cell differentiation” and the DSPP ([12]; 3 weeks) was “negative”. The RunX2 expression ([12]; RT-PCR) was “induced”, the “ALP and Van Kossa staining” value [13] was “increased” and the DSPP expression [13] was “increased”. For the same molecule, the “translocation of beta catenin” value [14] was “beta catenin translocalized into nucleus”, the DSP immunostaining [15] was “DSP-positive” and the “active beta catenin level” value [16] was “exhibited active beta-catenin levels”. For the same molecule, the “nuclear translocalization of beta catenin” value ([17]; PDL cells treated for 16 hours) was “nuclear translocalization”, the “translocation of beta catenin” value ([17]; PDL cells treated with recombinant amelogenin overnight) was “beta catenin translocalized into nucleus” and the “differentiation markers (Real Time PCR)” value [18] was “upregulation”. The ALP staining ([19]; 2 weeks) was “positive”, the “Van Kossa staining” value ([19]; 2 weeks) was “negative” and the ALP staining ([19]; 3 weeks) was “positive”. The “Van Kossa staining” value ([19]; 3 weeks) was “positive” and the non-phosphorylated beta-catenin levels [20] was “increased”.

`O=C1Nc2cc(Br)ccc2/C1=C1/Nc2ccccc2/C1=N\O` [BIO, reference compound] was tested, and the “cell differentiation (von Kossa staining)” value [11] was “cell differentiation”.

B1: Wnt3A: Wnt3A used at 50 ng/ml on human PDL cells as comparator (protein, UniProt P56704 19-352, looked up)
Protein Wnt-3a: SYPIWWSLAVGPQYSSLGSQPILCASIPGLVPKQLRFCRNYVEIMPSVAEGIKIGIQECQHQFRGRRWNCTTVHDSLAIFGPVLDKATRESAFVHAIASAGVAFAVTRSCAEGTAAICGCSSRHQGSPGKGWKWGGCSEDIEFGGMVSREFADARENRPDARSAMNRHNNEAGRQAIASHMHLKCKCHGLSGSCEVKTCWWSQPDFRAIGDFLKDKYDSASEMVVEKHRESRGWVETLRPRYTYFKVPTERDLVYYEASPNFCEPNPETGSFGTRDRTCNVSSHGIDGCDLLCCGRGHNARAERRREKCRCVFHWCCYVSCQECTRVYDVHTCK
B1 was tested, and the “cell differentiation (von Kossa staining)” value [11] was “cell differentiation”.
